Test results: patent US10988524B2, “Modified relaxin B chain peptides and their therapeutic use” (priority 2018, dated 2021)
Converted amounts (≈) assume the structure as drawn. Where two headings read alike, the source gives them in different places. Non-standard residues stand in square brackets, D forms with d. Residues, ends and D or L forms follow the SMILES beside them. Nle = CCCC[C@H](N)C(=O)O; Aib = CC(C)(N)C(=O)O

Columns and labels:
[1] = Solubility testing of peptides in buffer; type: physicochemical
[2] = biological target: T1, RXFP1 (Homo sapiens, UniProt Q9HBX9); test: OVCAR5 cAMP assay (RXFP1 agonist activity, HTRF); settings: for Emax: OVCAR-5, read-out: cAMP assay in OVCAR 5 cells Emax, maximal intracellular cAMP relative to H2-relaxin in the same test occasion; for EC50: cAMP assay in OVCAR 5 cells EC50 (nM), OVCAR5 cells expressing endogenous RXFP1, cAMP by HTRF, 30 min at 37° C., 1 mM IBMX
T1 sequence (Q9HBX9 1-757): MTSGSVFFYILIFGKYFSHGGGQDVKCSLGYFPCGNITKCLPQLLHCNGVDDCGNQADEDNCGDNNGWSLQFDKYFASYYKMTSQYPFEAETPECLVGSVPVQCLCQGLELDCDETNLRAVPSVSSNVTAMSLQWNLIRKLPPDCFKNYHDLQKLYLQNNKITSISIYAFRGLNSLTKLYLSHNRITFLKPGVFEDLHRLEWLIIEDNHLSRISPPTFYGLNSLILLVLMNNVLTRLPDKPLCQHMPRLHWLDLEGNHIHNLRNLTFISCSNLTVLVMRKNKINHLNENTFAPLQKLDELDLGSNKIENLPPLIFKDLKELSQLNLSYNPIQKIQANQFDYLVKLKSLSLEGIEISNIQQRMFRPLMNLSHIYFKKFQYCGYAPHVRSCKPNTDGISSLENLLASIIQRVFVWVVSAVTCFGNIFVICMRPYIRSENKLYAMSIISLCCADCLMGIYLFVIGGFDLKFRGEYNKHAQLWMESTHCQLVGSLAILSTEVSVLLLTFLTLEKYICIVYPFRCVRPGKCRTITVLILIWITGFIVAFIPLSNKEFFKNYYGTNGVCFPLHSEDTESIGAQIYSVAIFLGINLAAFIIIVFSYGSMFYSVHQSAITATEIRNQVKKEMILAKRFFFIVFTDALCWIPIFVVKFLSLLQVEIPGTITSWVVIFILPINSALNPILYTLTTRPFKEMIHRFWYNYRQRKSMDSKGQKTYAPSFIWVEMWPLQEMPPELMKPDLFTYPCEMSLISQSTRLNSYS

[3] = Stability in rat plasma; type: in vitro ADME; settings: 37° C.; for Rat plasma stability % remaining, T = 0: 5 μM; for remaining at 1 h, 5 μM / remaining at 4 h, 5 μM: rat plasma (sodium or lithium heparin)
Procedure: (§1) Prior to the testing of stability in plasma of a peptide batch, its purity (HPLC-UV) was determined.
(§2) Rat and Human plasma: anti-coagulant sodium or lithium heparin.
(§3) 100 μM solution of study compound in 50 mM Phosphate buffer pH 7.4.
(§4) 950 μL plasma is pre-incubated for 5 min at 37° C. 50 μL of compound stock solution is added. Final compound concentration=5 μM. Vortex and transfer 1504, plasma into an Eppendorf for each time point. The time points 0-1 and −4 h are carried out in duplicate for each species.
(§5) After incubation extract 1504, plasma with 6004, Acetonitrile containing with 1% TFA. Vortex and centrifuge 10 min at 14600 rpm. Dry 2004, supernatant under N2. Reconstitute sample in 200 μL of H2O/CH3CN 98/2+0.1% FA+50 ng/ml Labetalol and analyze using the analytical system used in solubility and stability studies.
(§6) For determination of the amount of the remaining peptide, the peak areas of the target compound at t0 and each time point […] were compared, resulting in “% remaining peptide”, following the equation
(§7) % remaining peptide=[(peak area peptide time)×100]/peak area peptide t0. The stability is expressed as “% remaining peptide”.

[4] = Stability in human plasma; type: in vitro ADME; settings: 37° C.; for Human Plasma stability % remaining, T = 0: 5 μM; for remaining at 1 h, 5 μM / remaining at 4 h, 5 μM: human plasma (sodium or lithium heparin)
Procedure: as §1, §2, §3, §4, §5, §6, §7

[5] = acetate buffer, pH 4.5, read-out: Solubility Acetate buffer pH 4.5
[6] = phosphate buffer, pH 7.4, read-out: Solubility phosphate buffer pH 7.4
[7] = Phosphate buffer 50 mM pH 7.4, target solubility 2.0 mg/ml, ~19 h, read-out: Solubility phosphate buffer pH 7.4

| solubility [1, 5] | solubility [1, 6] | Emax [2] | EC50 [2] | Rat plasma stability % remaining, T = 0 [3] | remaining at 1 h, 5 μM [3] | remaining at 4 h, 5 μM [3] | Human Plasma stability % remaining, T = 0 [4] | remaining at 1 h, 5 μM [4] | remaining at 4 h, 5 μM [4] | solubility [1, 7] | solubility ([1]; Acetate buffer 50 mM pH 4.5, target solubility 3.0 mg/ml, ~19 h, read-out: Solubility Acetate buffer pH 4.5) | solubility ([1]; Phosphate buffer 50 mM pH 7.4, target solubility 3.0 mg/ml, ~19 h, read-out: Solubility phosphate buffer pH 7.4) | Compound |
| --- | --- | --- | --- | --- | --- | --- | --- | --- | --- | --- | --- | --- | --- |
| 4000 µg/mL (≈ 1400 µM) | 4000 µg/mL (≈ 1400 µM) | 98% | ≤ 10 nM | 100% | 86% | 60% | 100% | 93% | 74% |  |  |  | CCCC[C@H](NC(=O)CNC(=O)[C@H](CCC(=O)O)NC(=O)C(C)(C)NC(=O)C(C)(C)NC(=O)[C@@H](NC(=O)[C@H](CCCCNC(C)=O)NC(=O)[C@H](C)NC(=O)[C@H](CCCNC(=N)N)NC(=O)[C@@H](NC(=O)[C@H](CCCCN)NC(=O)[C@H](CCC(=O)O)NC(=O)[C@H](CCCNC(=N)N)NC(=O)CNC(=O)[C@H](CCC(=O)O)NC(=O)[C@H](CC(C)C)NC(C)=O)C(C)C)[C@@H](C)CC)C(=O)N[C@@H](CO)C(=O)N[C@H](C(=O)N[C@@H](Cc1c[nH]c2ccccc12)C(=O)N[C@@H](CO)C(=O)NC(C)(C)C(=O)N[C@@H](CCCNC(=N)N)C(=O)N[C@@H](CCCCN)C(=O)N[C@@H](CCCCNC(C)=O)C(N)=O)[C@@H](C)O [compound 5] (Ac-LEGREKVRAK(Ac)I[Aib][Aib]EG[Nle]STWS[Aib]RKK(Ac)-NH2) |
| ≥ 6100 µg/mL | ≥ 5800 µg/mL | 99% |  | 100% | 91% | 101% | 100% | 95% | 93% |  |  |  | CC[C@H](C)[C@H](NC(=O)[C@H](CCC(N)=O)NC(=O)[C@H](C)NC(=O)[C@H](CCCNC(=N)N)NC(=O)[C@@H](NC(=O)[C@H](CCCCN)NC(=O)[C@H](CCC(=O)O)NC(=O)[C@H](CCCNC(=N)N)NC(=O)CNC(=O)[C@H](CCC(=O)O)NC(=O)[C@H](CC(C)C)NC(C)=O)C(C)C)C(=O)NC(C)(C)C(=O)NC(C)(C)C(=O)N[C@@H](CCC(=O)O)C(=O)NCC(=O)N[C@@H](CCSC)C(=O)N[C@@H](CO)C(=O)N[C@H](C(=O)N[C@@H](Cc1c[nH]c2ccccc12)C(=O)N[C@@H](CO)C(=O)NC(C)(C)C(=O)N[C@@H](CCCNC(=N)N)C(=O)N[C@@H](CCCCN)C(=O)N[C@@H](CCCCN)C(N)=O)[C@@H](C)O [compound 4] (Ac-LEGREKVRAQI[Aib][Aib]EGMSTWS[Aib]RKK-NH2) |
|  |  | 75% |  |  |  |  |  |  |  | ≥ 2100 µg/mL |  |  | CCCC[C@H](NC(=O)CNC(=O)[C@H](CCC(=O)O)NC(=O)C(C)(C)NC(=O)C(C)(C)NC(=O)[C@@H](NC(=O)[C@H](CCC(N)=O)NC(=O)[C@H](C)NC(=O)[C@H](CCCNC(=N)N)NC(=O)[C@@H](NC(=O)[C@H](CCCCN)NC(=O)[C@H](CCC(=O)O)NC(=O)[C@H](CCCNC(=N)N)NC(=O)CNC(=O)[C@H](CCC(=O)O)NC(=O)[C@H](CC(C)C)NC(C)=O)C(C)C)[C@@H](C)CC)C(=O)N[C@@H](CO)C(=O)N[C@H](C(=O)N[C@@H](Cc1ccc(O)cc1)C(=O)N[C@@H](CO)C(=O)NC(C)(C)C(=O)N[C@@H](CCCNC(=N)N)C(=O)N[C@@H](CCCCN)C(=O)N[C@@H](CCCCN)C(N)=O)[C@@H](C)O [compound 53] (Ac-LEGREKVRAQI[Aib][Aib]EG[Nle]STYS[Aib]RKK-NH2) |
|  |  | 90% | ≤ 5 nM |  |  |  |  |  |  | ≥ 2300 µg/mL |  |  | CCCC[C@H](NC(=O)CNC(=O)[C@H](CCC(=O)O)NC(=O)C(C)(C)NC(=O)C(C)(C)NC(=O)[C@@H](NC(=O)[C@H](CCC(N)=O)NC(=O)[C@H](C)NC(=O)[C@H](CCCNC(=N)N)NC(=O)[C@@H](NC(=O)[C@H](CCCCN)NC(=O)[C@H](CCC(=O)O)NC(=O)[C@H](CCCNC(=N)N)NC(=O)CNC(=O)[C@H](CCC(=O)O)NC(=O)[C@H](CC(C)C)NC(C)=O)C(C)C)[C@@H](C)CC)C(=O)N[C@@H](CO)C(=O)N[C@H](C(=O)N[C@@H](Cc1c[nH]c2ccccc12)C(=O)N[C@@H](CO)C(=O)NC(C)(C)C(=O)N[C@@H](CCCNC(=N)N)C(=O)N[C@@H](CCCNC(=N)N)C(=O)N[C@@H](CCCNC(=N)N)C(N)=O)[C@@H](C)O [compound 50] (Ac-LEGREKVRAQI[Aib][Aib]EG[Nle]STWS[Aib]RRR-NH2) |
|  |  | 98% |  |  |  |  |  |  |  | ≥ 2400 µg/mL |  |  | CCCC[C@H](NC(=O)CNC(=O)[C@H](CCC(=O)O)NC(=O)C(C)(C)NC(=O)C(C)(C)NC(=O)[C@@H](NC(=O)[C@H](CCC(N)=O)NC(=O)[C@H](C)NC(=O)[C@H](CCCNC(=N)N)NC(=O)[C@@H](NC(=O)[C@H](CCCCN)NC(=O)[C@H](CCC(=O)O)NC(=O)[C@H](CCCNC(=N)N)NC(=O)CNC(=O)[C@H](CCC(=O)O)NC(=O)[C@H](CC(C)C)NC(C)=O)C(C)C)[C@@H](C)CC)C(=O)N[C@@H](CO)C(=O)N[C@H](C(=O)N[C@@H](Cc1ccccc1)C(=O)N[C@@H](CO)C(=O)NC(C)(C)C(=O)N[C@@H](CCCNC(=N)N)C(=O)N[C@@H](CCCCN)C(=O)N[C@@H](CCCCN)C(N)=O)[C@@H](C)O [compound 51] (Ac-LEGREKVRAQI[Aib][Aib]EG[Nle]STFS[Aib]RKK-NH2) |
|  |  | 97% |  | 100% | 78% | 55% | 100% | 85% | 64% |  | ≥ 3300 µg/mL | ≥ 2900 µg/mL | CCCC[C@H](NC(=O)CNC(=O)[C@H](CCC(=O)O)NC(=O)C(C)(C)NC(=O)C(C)(C)NC(=O)[C@@H](NC(=O)[C@H](CCC(N)=O)NC(=O)[C@H](C)NC(=O)[C@H](CCCNC(=N)N)NC(=O)[C@@H](NC(=O)[C@H](CCCCN)NC(=O)[C@H](CCC(=O)O)NC(=O)[C@H](CCCNC(=N)N)NC(=O)CNC(=O)[C@H](CCC(=O)O)NC(=O)[C@H](CC(C)C)NC(C)=O)C(C)C)[C@@H](C)CC)C(=O)N[C@@H](CO)C(=O)N[C@H](C(=O)N[C@@H](Cc1c[nH]c2ccccc12)C(=O)N[C@@H](CO)C(=O)NC(C)(C)C(=O)N[C@@H](CCCNC(=N)N)C(=O)N[C@@H](CCCCN)C(=O)N[C@@H](CCCCN)C(N)=O)[C@@H](C)O [compound 3] (Ac-LEGREKVRAQI[Aib][Aib]EG[Nle]STWS[Aib]RKK-NH2) |
